Experimental data: the NIST ThermoML archive (doi:10.1016/j.jct.2011.08.016)
Numbers after ± are expanded uncertainties.

Conditions: Liquid, Vibrating tube method

CCCCCCC [heptane]
mass density [kg/m3]
Conditions	313.18 K	333.04 K	353.06 K
1000 kPa	668.09 ± 0.43	650.66 ± 0.43	–
1010 kPa	–	–	632.6 ± 0.44
2000 kPa	669.03 ± 0.44	651.8 ± 0.44	634.02 ± 0.44
3000 kPa	669.97 ± 0.44	652.94 ± 0.45	635.41 ± 0.45
4000 kPa	670.93 ± 0.45	654.08 ± 0.45	636.78 ± 0.46
5000 kPa	–	655.23 ± 0.46	638.15 ± 0.46
5010 kPa	671.9 ± 0.45	–	–
6000 kPa	672.87 ± 0.46	656.38 ± 0.46	639.47 ± 0.47
7000 kPa	673.86 ± 0.47	657.54 ± 0.47	640.8 ± 0.48
8000 kPa	674.87 ± 0.47	658.65 ± 0.48	642.1 ± 0.48
9000 kPa	675.87 ± 0.48	659.81 ± 0.48	–
9010 kPa	–	–	643.4 ± 0.49
10000 kPa	676.86 ± 0.49	660.92 ± 0.49	644.66 ± 0.5
11000 kPa	677.85 ± 0.49	662.03 ± 0.5	645.92 ± 0.5
12000 kPa	678.83 ± 0.5	663.1 ± 0.51	647.13 ± 0.51
13000 kPa	679.81 ± 0.51	664.2 ± 0.51	648.37 ± 0.52
14000 kPa	680.76 ± 0.51	665.25 ± 0.52	649.56 ± 0.53
15000 kPa	681.7 ± 0.52	666.31 ± 0.53	650.72 ± 0.54
16000 kPa	682.62 ± 0.53	667.33 ± 0.54	651.88 ± 0.54
17000 kPa	683.53 ± 0.53	668.33 ± 0.54	653 ± 0.55
18000 kPa	684.41 ± 0.54	–	–
18030 kPa	–	669.34 ± 0.55	654.12 ± 0.56
19000 kPa	685.26 ± 0.55	670.26 ± 0.56	655.16 ± 0.57
20000 kPa	686.11 ± 0.56	671.2 ± 0.57	656.22 ± 0.58
21000 kPa	686.92 ± 0.57	–	657.27 ± 0.59
22000 kPa	687.67 ± 0.57	673.01 ± 0.58	658.25 ± 0.59
23000 kPa	688.42 ± 0.58	673.86 ± 0.59	659.24 ± 0.6
23910 kPa	689.07 ± 0.59	–	–
24000 kPa	–	674.7 ± 0.6	660.2 ± 0.61
25000 kPa	689.85 ± 0.59	675.52 ± 0.61	661.14 ± 0.62
